Like-named read-outs stand apart in the source and are kept apart here.
Assays:
MT P45014DM [1] = target: T1, MT P45014DM (Mycobacterium tuberculosis, UniProt P9WPP9); experiment: biochemical; assay type: binding; set-up: DNA segments encoding full length proteins preferably have a coding length on the order of about 1353 nucleotides; made in house; host or cells: E. coli HMS174, vector pet17b; details: for Kd: type I substrate-induced difference spectrum, 10 μM MT P45014DM, read-out: Ks value (binding constant), substrate
T1 sequence (P9WPP9 1-451): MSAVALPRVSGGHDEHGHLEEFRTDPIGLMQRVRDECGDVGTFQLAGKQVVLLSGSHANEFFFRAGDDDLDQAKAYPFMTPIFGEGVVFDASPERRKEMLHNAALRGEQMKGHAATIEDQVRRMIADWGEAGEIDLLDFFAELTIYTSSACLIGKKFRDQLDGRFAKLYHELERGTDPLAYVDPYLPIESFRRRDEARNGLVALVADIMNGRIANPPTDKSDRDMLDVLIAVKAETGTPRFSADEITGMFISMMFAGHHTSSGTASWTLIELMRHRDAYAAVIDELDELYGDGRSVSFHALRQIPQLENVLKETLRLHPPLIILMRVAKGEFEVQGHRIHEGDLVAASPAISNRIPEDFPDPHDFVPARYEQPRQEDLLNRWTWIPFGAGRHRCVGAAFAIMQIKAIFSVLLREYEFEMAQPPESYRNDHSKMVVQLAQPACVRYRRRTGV

MT P45014DM [2] = target: T1, MT P45014DM; experiment: Reconstituted catalytic activity: sterol 14α-demethylation by MT P45014DM; assay type: biochemical; set-up: DNA segments encoding full length proteins preferably have a coding length on the order of about 1353 nucleotides; made in house; host or cells: E. coli HMS174, vector pet17b
MT P45014DM [3] = target: T1, MT P45014DM; experiment: biochemical; assay type: binding; set-up: DNA segments encoding full length proteins preferably have a coding length on the order of about 1353 nucleotides; made in house; host or cells: E. coli HMS174, vector pet17b
maize microsomes = details: Salmon et al. 1992; read-out: binding constant estimated for maize microsomes; cited from earlier work
MT H37RA = experiment: Effect of azole inhibitors on growth of MT; assay type: cell-based, Mycobacterium tuberculosis
Description: The characterization of the CYP51 enzyme of the present invention in MT leads to the analysis of the function of this enzyme in the disease tuberculosis and of whether this enzyme represents a new drug target for the treatment of tuberculosis. Particularly, the effects of three azole inhibitors on the growth of MT H37RA, an alternated strain of MTH37R which is the pathogenic strain whose genomic sequence was determined by Cole et al., (1998) Nature […]:537-544 (bacterial strains provided by Dr. Dean Crick at Colorado State University) were examined.
As contemplated by applicants in accordance with the present invention, it was observed that ketoconazole has a profound effect on the growth of MT, stopping growth at about a 25 μM concentration. […] The targeting of ketoconazole to P45014DM in MT also leads to the identification of additional specific azole inhibitors which have far greater specificity for the MT CYP45014DM enzyme as compared to the human CYP45014DM enzyme. Such inhibitors therefore will have fewer side effects than less specific inhibitors. Thus, as described above, a method of screening for highly specific inhibitors of MT CYP45014DM in accordance with the screening methods described herein above comprises another aspect of the present invention.

MT P45014DM [4] = target: T1, MT P45014DM; details: compared to 100% determined by sodium hydrosulfite
[5] = target: T2, cholesterol side chain cleavage P450 (SCC) (Bos taurus, UniProt P00189); experiment: CO-based reduction of cholesterol side chain cleavage P450 by electron donor (control); assay type: biochemical, bovine; details: compared to 100% determined by sodium hydrosulfite
T2 sequence (P00189 40-520): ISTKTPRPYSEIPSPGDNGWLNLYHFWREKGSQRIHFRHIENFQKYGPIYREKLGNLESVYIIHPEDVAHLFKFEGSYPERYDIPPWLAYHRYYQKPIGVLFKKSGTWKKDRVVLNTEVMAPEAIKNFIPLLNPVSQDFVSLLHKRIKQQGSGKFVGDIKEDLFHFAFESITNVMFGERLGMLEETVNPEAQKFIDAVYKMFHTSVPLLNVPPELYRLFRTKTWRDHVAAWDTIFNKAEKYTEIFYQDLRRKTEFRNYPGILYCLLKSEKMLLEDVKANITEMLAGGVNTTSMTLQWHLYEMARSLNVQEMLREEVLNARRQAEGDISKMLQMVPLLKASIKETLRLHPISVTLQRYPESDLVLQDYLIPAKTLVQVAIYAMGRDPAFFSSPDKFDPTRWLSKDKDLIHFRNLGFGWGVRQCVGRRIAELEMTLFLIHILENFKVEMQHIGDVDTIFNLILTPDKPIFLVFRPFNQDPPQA

[6] = target: T3, bovine 17α-hydroxylase P450 (bC17) (Bos taurus, UniProt P05185); experiment: CO-based reduction of 17α-hydroxylase P450 by electron donors (control); assay type: biochemical; details: compared to 100% determined by sodium hydrosulfite
T3 sequence (P05185 1-509): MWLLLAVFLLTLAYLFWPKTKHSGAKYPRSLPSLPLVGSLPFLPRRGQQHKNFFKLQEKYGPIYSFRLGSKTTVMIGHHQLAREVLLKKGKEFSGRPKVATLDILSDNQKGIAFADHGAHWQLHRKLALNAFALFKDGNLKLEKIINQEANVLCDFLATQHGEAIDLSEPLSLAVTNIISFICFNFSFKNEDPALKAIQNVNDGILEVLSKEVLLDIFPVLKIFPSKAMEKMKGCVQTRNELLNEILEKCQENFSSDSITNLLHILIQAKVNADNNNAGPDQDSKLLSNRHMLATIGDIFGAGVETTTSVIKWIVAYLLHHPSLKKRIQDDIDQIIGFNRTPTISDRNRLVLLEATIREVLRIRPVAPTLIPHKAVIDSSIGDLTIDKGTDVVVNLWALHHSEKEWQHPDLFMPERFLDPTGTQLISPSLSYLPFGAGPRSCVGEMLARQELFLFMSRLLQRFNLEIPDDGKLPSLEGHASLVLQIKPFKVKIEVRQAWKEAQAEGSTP

## C=C(CC[C@@H](C)[C@H]1CC[C@@]2(C)C3=C(CC[C@]12C)[C@@]1(C)CC[C@H](O)C(C)(C)[C@@H]1CC3)C(C)C [24-methylene-dihydrolanosterol]
MT P45014DM [1]
  sterol binding to the enzyme (yes/no): did not bind

## CC(C)CCC[C@@H](C)[C@H]1CC[C@@]2(C)C3=C(CC[C@]12C)[C@@]1(C)CC[C@H](O)C(C)(C)[C@@H]1CC3 [DHL, 24,25-dihydrolanosterol]
MT P45014DM [2]
  Total product recovered from the quenched reaction mixtures: 20%
MT P45014DM [1]
  sterol binding to the enzyme (yes/no): binds
  Kd: ~1000 nM

## CC(C)=CCC[C@@H](C)[C@H]1CC[C@@]2(C)[C@@H]3CC[C@H]4C(C)(C)[C@@H](O)CC[C@@]45C[C@@]35CC[C@]12C [cycloartenol]
MT P45014DM [1]
  sterol binding to the enzyme (yes/no): Neither parkeol, cycloartenol, nor zymosterol (FIG. 3A) were found to bind

## CC(=O)N1CCN(c2ccc(OCC3COC(Cn4ccnc4)(c4ccc(Cl)cc4Cl)O3)cc2)CC1 (stereo not shown) [ketoconazole]
MT P45014DM [2]
  inhibition of the 14α-demethylation of DHL: inhibit
MT P45014DM [3]
  Kd: ~5000 nM
Maize microsomes
  Kd: 10000 nM
MT H37RA
  concentration stopping growth of MT: ~25 µM

## CC(C)=CCC[C@@H](C)[C@H]1CC[C@@]2(C)C3=C(CC[C@]12C)[C@@]1(C)CC[C@H](O)C(C)(C)[C@@H]1CC3 [lanosterol]
MT P45014DM [2]
  Total product recovered from the quenched reaction mixtures: 1%
MT P45014DM [1]
  sterol binding to the enzyme (yes/no): binds
  Kd: ~1000 nM

## C=C(CC[C@@H](C)[C@H]1CC[C@@]2(C)C3=C(CC[C@]12C)[C@@]1(C)CC[C@H](O)[C@@H](C)[C@@H]1CC3)C(C)C [obtusifoliol]
MT P45014DM [2]
  Total product recovered from the quenched reaction mixtures: 98%
MT P45014DM [1]
  sterol binding to the enzyme (yes/no): binds
  Kd: 350 ± 150 nM

## CC(C)=CCC[C@@H](C)[C@H]1CC[C@@]2(C)[C@@H]3CC[C@H]4C(C)(C)[C@@H](O)CC[C@]4(C)C3=CC[C@]12C [parkeol]
MT P45014DM [1]
  sterol binding to the enzyme (yes/no): Neither parkeol, cycloartenol, nor zymosterol (FIG. 3A) were found to bind

## CC(C)=CCC[C@@H](C)[C@H]1CC[C@H]2C3=C(CC[C@]12C)[C@@]1(C)CC[C@H](O)C[C@@H]1CC3 [zymosterol, 4,4,14-tridesmethyl lanosterol]
MT P45014DM [1]
  sterol binding to the enzyme (yes/no): Neither parkeol, cycloartenol, nor zymosterol (FIG. 3A) were found to bind

B1: Adx/Adr: bovine adrenodoxin/adrenodoxin reductase electron donor system (protein, UniProt P00257 59-186; P08165 33-492, looked up)
Adrenodoxin, mitochondrial: SSSEDKITVHFINRDGETLTTKGKIGDSLLDVVVQNNLDIDGFGACEGTLACSTCHLIFEQHIFEKLEAITDEENDMLDLAYGLTDRSRLGCQICLTKAMDNMTVRVPDAVSDARESIDMGMNSSKIE
NADPH:adrenodoxin …: STQEQTPQICVVGSGPAGFYTAQHLLKHHSRAHVDIYEKQLVPFGLVRFGVAPDHPEVKNVINTFTQTARSDRCAFYGNVEVGRDVTVQELQDAYHAVVLSYGAEDHQALDIPGEELPGVFSARAFVGWYNGLPENRELAPDLSCDTAVILGQGNVALDVARILLTPPDHLEKTDITEAALGALRQSRVKTVWIVGRRGPLQVAFTIKELREMIQLPGTRPMLDPADFLGLQDRIKEAARPRKRLMELLLRTATEKPGVEEAARRASASRAWGLRFFRSPQQVLPSPDGRRAAGIRLAVTRLEGIGEATRAVPTGDVEDLPCGLVLSSIGYKSRPIDPSVPFDPKLGVVPNMEGRVVDVPGLYCSGWVKRGPTGVITTTMTDSFLTGQILLQDLKAGHLPSGPRPGSAFIKALLDSRGVWPVSFSDWEKLDAEEVSRGQASGKPREKLLDPQEMLRLLGH
modifications: two-protein electron donor system
MT P45014DM [4]
  reduction of MT P45014DM (reduced-CO spectrum): n.r.
[5]
  reduction of SCC (reduced-CO spectrum): 80%

B2: rat P450 reductase: rat microsomal NADPH cytochrome P450 reductase (protein, UniProt P00388 2-678, looked up)
NADPH--cytochrome P450 …: GDSHEDTSATMPEAVAEEVSLFSTTDMVLFSLIVGVLTYWFIFRKKKEEIPEFSKIQTTAPPVKESSFVEKMKKTGRNIIVFYGSQTGTAEEFANRLSKDAHRYGMRGMSADPEEYDLADLSSLPEIDKSLVVFCMATYGEGDPTDNAQDFYDWLQETDVDLTGVKFAVFGLGNKTYEHFNAMGKYVDQRLEQLGAQRIFELGLGDDDGNLEEDFITWREQFWPAVCEFFGVEATGEESSIRQYELVVHEDMDVAKVYTGEMGRLKSYENQKPPFDAKNPFLAAVTANRKLNQGTERHLMHLELDISDSKIRYESGDHVAVYPANDSALVNQIGEILGADLDVIMSLNNLDEESNKKHPFPCPTTYRTALTYYLDITNPPRTNVLYELAQYASEPSEQEHLHKMASSSGEGKELYLSWVVEARRHILAILQDYPSLRPPIDHLCELLPRLQARYYSIASSSKVHPNSVHICAVAVEYEAKSGRVNKGVATSWLRAKEPAGENGGRALVPMFVRKSQFRLPFKSTTPVIMVGPGTGIAPFMGFIQERAWLREQGKEVGETLLYYGCRRSDEDYLYREELARFHKDGALTQLNVAFSREQAHKVYVQHLLKRDREHLWKLIHEGGAHIYVCGDARNMAKDVQNTFYDIVAEFGPMEHTQAVDYVKKLMTKGRYSLDVWS
MT P45014DM [4]
  reduction of MT P45014DM (reduced-CO spectrum): n.r.
[6]
  reduction of bC17 (reduced-CO spectrum): 73%

B3: Fld/Fdr: E. coli flavodoxin/flavodoxin reductase two-component electron donor system (protein, UniProt P61949 2-176; P28861 2-248, looked up)
Flavodoxin 1: AITGIFFGSDTGNTENIAKMIQKQLGKDVADVHDIAKSSKEDLEAYDILLLGIPTWYYGEAQCDWDDFFPTLEEIDFNGKLVALFGCGDQEDYAEYFCDALGTIRDIIEPRGATIVGHWPTAGYHFEASKGLADDDHFVGLAIDEDRQPELTAERVEKWVKQISEELHLDEILNA
Flavodoxin/ferredoxin--NADP …: ADWVTGKVTKVQNWTDALFSLTVHAPVLPFTAGQFTKLGLEIDGERVQRAYSYVNSPDNPDLEFYLVTVPDGKLSPRLAALKPGDEVQVVSEAAGFFVLDEVPHCETLWMLATGTAIGPYLSILQLGKDLDRFKNLVLVHAARYAADLSYLPLMQELEKRYEGKLRIQTVVSRETAAGSLTGRIPALIESGELESTIGLPMNKETSHVMLCGNPQMVRDTQQLLKETRQMTKHLRRRPGHMTAEHYW
[6]
  reduction of bC17 (reduced-CO spectrum): 77%

From patent US20020031782A1, “Mycobacterium tuberculosis CYP51 high resolution structure, polypeptides and nucleic acids, and therapeutic and screening methods relating to same” (priority 1999, published 2002)
